Among the test systems are IGROV-1; HOP-92; CCRF-CEM; SNB-75; SF-268; SNB-19; SK-OV-3; OVCAR-4; OVCAR-8; NCI-H226; RPMI-8226; OVCAR-3; SR; LOX IMVI; SK-MEL-5; MCF7; UACC-62; KM12; T47D; MDA-MB-231.
Holding throughout (experiment): NCI tumour cell line growth inhibition, 48 h

The structures appear in SMILES notation.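 The compound was tested at five concentrations on cells cultured in 96-well plates, with a 48-hour exposure period. Here, GI50 denotes the concentration required for 50% inhibition of growth.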 Active and inactive are the calls of the source. Rule as the data show it: active = GI50 up to about 1.1 µM and inactive = higher.

Take `CC1(C)OC(=O)C(=C2CC(c3ccccc3)c3ccccc32)C(=O)O1` (stereo unspecified): the GI50 with IGROV-1, in the test with HOP-92, with CCRF-CEM, in the test on SNB-75, with SF-268 and in the test on SNB-19 was > 100 µM (inactive) throughout. Moreover, the GI50 with SK-OV-3, in the test with OVCAR-4, in the test with OVCAR-8, with NCI-H226, in the test with RPMI-8226 and with OVCAR-3 was > 100 µM (inactive) in each case. Further, the GI50 with SR, with LOX IMVI and with SK-MEL-5 was > 100 µM (inactive) throughout.
With `CCOC(=O)N[C@H]1CCc2cc(OC)c(OC)c(OC)c2-c2ccc(SC)c(=O)cc21`, the GI50 was < 0.01 µM (active) with MCF7; < 0.01 µM (active) with IGROV-1; < 0.01 µM (active) in the test with HOP-92; < 0.01 µM (active) with CCRF-CEM; < 0.0434 µM (active) in the test with SNB-75; < 0.01 µM (active) with SF-268. Also, the GI50 is 0.108 µM (active) in the test on SNB-19; 16 µM (inactive) in the test with OVCAR-4; < 0.01 µM (active) in the test on OVCAR-8; 0.163 µM (active) in the test on NCI-H226; < 0.01 µM (active) in the test with UACC-62; < 0.01 µM (active) in the test with RPMI-8226. Also, the GI50 was < 0.01 µM (active) in the test on OVCAR-3; < 0.01 µM (active) with SR; < 0.01 µM (active) in the test on KM12; < 0.01 µM (active) in the test with LOX IMVI; < 0.01 µM (active) in the test on SK-MEL-5; > 54.6 µM (inactive) in the test on T47D.
Turning to `[O-][S+]1Nc2cccc(C(F)(F)F)c2S1` (stereo unspecified), the GI50 in the test with IGROV-1 was 38.5 µM (inactive); with HOP-92 it was 35.6 µM (inactive); in the test with CCRF-CEM it was 6.78 µM (inactive); in the test with SNB-75, 29.6 µM (inactive); in the test on SF-268 it was 48 µM (inactive); in the test with SNB-19, 67.1 µM (inactive). Also, the GI50 in the test with SK-OV-3 was > 100 µM (inactive); in the test on OVCAR-4, 46.7 µM (inactive); in the test with OVCAR-8, 54.8 µM (inactive); in the test with NCI-H226 it was 73.3 µM (inactive); with UACC-62, 27.7 µM (inactive); in the test with RPMI-8226, 29 µM (inactive). Besides, the GI50 in the test with OVCAR-3 was 33.5 µM (inactive); in the test with SR, 25.5 µM (inactive); in the test on KM12 it was 21.4 µM (inactive); in the test on LOX IMVI it was 21.1 µM (inactive); in the test on SK-MEL-5, 42 µM (inactive).
Turning to `O=c1nc2sc3ccc4ccccc4c3n2nc1-c1ccccc1`, the GI50 was 25.4 µM (inactive) in the test on IGROV-1; 21.4 µM (inactive) with HOP-92; > 100 µM (inactive) in the test with CCRF-CEM; 21.1 µM (inactive) in the test with SNB-75; 37.3 µM (inactive) with SF-268; 29.4 µM (inactive) in the test with SNB-19. Also, the GI50 with SK-OV-3 is 36.1 µM (inactive); with OVCAR-4, 14.7 µM (inactive); with OVCAR-8 it was 18.9 µM (inactive); in the test on NCI-H226 it was 59.2 µM (inactive); in the test on UACC-62, 64.4 µM (inactive); with OVCAR-3 it was 19 µM (inactive). In addition, the GI50 is 71.6 µM (inactive) in the test on SR, 63.5 µM (inactive) in the test on KM12, 15.1 µM (inactive) with LOX IMVI and 59.2 µM (inactive) with SK-MEL-5.
For the molecule `O=C(Nc1ccccc1)Oc1ccc(C(=S)Nc2ccc(Br)cc2)cc1`, the GI50 in the test on MCF7 was 19.1 µM (inactive); in the test on IGROV-1 it was 6.43 µM (inactive); in the test on CCRF-CEM, 8.57 µM (inactive); in the test with SF-268, 16.4 µM (inactive); in the test on SK-OV-3 it was 34.5 µM (inactive); in the test on OVCAR-4 it was 14.3 µM (inactive). For the same molecule, the GI50 with OVCAR-8 is 12.6 µM (inactive); in the test with UACC-62, 11 µM (inactive); with RPMI-8226, 36.6 µM (inactive); in the test with OVCAR-3, 18.9 µM (inactive); in the test on SR, 13.4 µM (inactive); with KM12, 12.8 µM (inactive). In addition, the figures for the GI50 in the test with LOX IMVI, in the test on SK-MEL-5 and in the test on T47D were 11.9 µM (inactive), 16 µM (inactive) and 22.2 µM (inactive), respectively.
Consider `COc1cc(C(=O)C/C(CCC(=O)Nc2ccccc2[N+](=O)[O-])=N\NC(N)=O)ccc1O`, for which the GI50 in the test with IGROV-1, with HOP-92, with CCRF-CEM, with SNB-75, in the test with SF-268 and in the test on SNB-19 was > 100 µM (inactive) in each case. In addition, the GI50 in the test on SK-OV-3, in the test on OVCAR-8, in the test on NCI-H226, in the test on UACC-62, in the test on RPMI-8226 and in the test on OVCAR-3 was > 100 µM (inactive) in each case. For the same molecule, the GI50 in the test with SR, in the test on KM12, in the test on LOX IMVI and with SK-MEL-5 was > 100 µM (inactive) each time.
As to `COc1c(C(=O)O)oc2c(OC)cccc12`, the GI50 was > 100 µM (inactive) in the test on IGROV-1; > 100 µM (inactive) in the test with HOP-92; > 100 µM (inactive) in the test on CCRF-CEM; 29.9 µM (inactive) in the test with SNB-75; > 100 µM (inactive) in the test on SF-268; > 100 µM (inactive) in the test with SNB-19. The GI50 in the test with SK-OV-3, in the test on OVCAR-4, with OVCAR-8, in the test on NCI-H226, with UACC-62 and with RPMI-8226 was > 100 µM (inactive) each time. Besides, the GI50 in the test with OVCAR-3, with SR, with KM12, in the test on LOX IMVI and in the test on SK-MEL-5 was > 100 µM (inactive) in each case.
With `O=C(/C=C/c1ccc(Br)cc1)c1ccc(NCc2nc3ccccc3[nH]2)cc1`, the GI50 in the test with IGROV-1 was 17.3 µM (inactive); in the test with HOP-92 it was 4 µM (inactive); in the test on CCRF-CEM, 4.76 µM (inactive); in the test on SNB-75 it was 4.34 µM (inactive); with SF-268, 8.18 µM (inactive); with SNB-19, 8.79 µM (inactive). Besides, the GI50 in the test on SK-OV-3 was 28.4 µM (inactive); in the test with OVCAR-4, 14.4 µM (inactive); in the test on OVCAR-8 it was 3.37 µM (inactive); with NCI-H226, 10.9 µM (inactive); with UACC-62, 7.1 µM (inactive); with RPMI-8226, 1.93 µM (inactive). Further, the GI50 was 4.61 µM (inactive) in the test with OVCAR-3; 5.69 µM (inactive) in the test with SR; 2.67 µM (inactive) with KM12; 2.11 µM (inactive) in the test with LOX IMVI; 4.4 µM (inactive) in the test with SK-MEL-5.
Consider `COC(=O)[C@H](Cc1ccccc1)NC(=O)N1CCN(C(=O)N[C@@H](Cc2ccccc2)C(=O)OC)CCN(C(=O)N[C@@H](Cc2ccccc2)C(=O)OC)CC1`, for which the GI50 with MCF7, with IGROV-1, with HOP-92, in the test on CCRF-CEM, in the test with SNB-75 and with SF-268 was > 100 µM (inactive) each time. Also, the GI50 in the test on SNB-19, in the test with SK-OV-3, in the test with OVCAR-4, with OVCAR-8, in the test on NCI-H226 and in the test with UACC-62 was > 100 µM (inactive) each time. The GI50 in the test on RPMI-8226, in the test on OVCAR-3, in the test on KM12, in the test on LOX IMVI, in the test with SK-MEL-5 and in the test on T47D was > 100 µM (inactive) in each case.
As to `Cc1cc(C)c(-n2c(C)c(C)c(C#N)c2N)c(C)c1`, the GI50 is 37 µM (inactive) in the test with IGROV-1; 19 µM (inactive) in the test on HOP-92; 15.3 µM (inactive) in the test on CCRF-CEM; 31.9 µM (inactive) in the test on SNB-75; 38.6 µM (inactive) in the test on SF-268; 87.7 µM (inactive) with SNB-19. Also, the GI50 was 33 µM (inactive) in the test with SK-OV-3; 29 µM (inactive) in the test with OVCAR-4; 33.6 µM (inactive) in the test with MDA-MB-231; 34.6 µM (inactive) in the test with OVCAR-8; 25 µM (inactive) in the test with NCI-H226; 18.6 µM (inactive) with RPMI-8226. The GI50 with OVCAR-3 is 24.2 µM (inactive); in the test with SR, 11 µM (inactive); in the test on KM12 it was 36.1 µM (inactive); in the test with LOX IMVI, 19.2 µM (inactive); in the test on SK-MEL-5, 14.9 µM (inactive); in the test with T47D, 26.3 µM (inactive).
As to `CCCC(O)[C@@H](O)c1ccc2c(c1O)C(=O)c1c(OC)cccc1C2=O` (stereo partly specified), the GI50 is 30.7 µM (inactive) in the test on IGROV-1; 58.2 µM (inactive) in the test on HOP-92; 31.3 µM (inactive) in the test with CCRF-CEM; 47 µM (inactive) in the test on SNB-75; 57.7 µM (inactive) in the test with SF-268; 80.4 µM (inactive) with SNB-19. Besides, the GI50 is 24.1 µM (inactive) in the test with SK-OV-3; 25 µM (inactive) in the test with OVCAR-4; 30.1 µM (inactive) in the test on OVCAR-8; 27.3 µM (inactive) in the test on NCI-H226; 25.9 µM (inactive) with UACC-62; 5.73 µM (inactive) with RPMI-8226. The GI50 was 34.8 µM (inactive) in the test with OVCAR-3; 26.4 µM (inactive) with SR; 35.6 µM (inactive) with KM12; 27.4 µM (inactive) with LOX IMVI; 16.8 µM (inactive) with SK-MEL-5.
As for `NC(CCP(=O)(O)O)C(=O)O` (stereo unspecified), the GI50 in the test on IGROV-1, with HOP-92, in the test on CCRF-CEM, with SF-268, in the test with SNB-19 and in the test with OVCAR-4 was > 100 µM (inactive) throughout. The GI50 in the test on MDA-MB-231, with OVCAR-8, in the test on NCI-H226, in the test with UACC-62, in the test on RPMI-8226 and in the test on OVCAR-3 was > 100 µM (inactive) throughout. In addition, the GI50 in the test on SR, with KM12, with LOX IMVI, with SK-MEL-5 and in the test with T47D was > 100 µM (inactive) in each case.

The values above are taken from ChEMBL document CHEMBL1201862, “PubChem BioAssay data set” (2004).
